Key:
[1] = molecular target: T1, C-X-C chemokine receptor type 3 (Homo sapiens, UniProt P49682); assay: Antagonist activity at human CXCR3; type: functional
T1 sequence (P49682 whole entry): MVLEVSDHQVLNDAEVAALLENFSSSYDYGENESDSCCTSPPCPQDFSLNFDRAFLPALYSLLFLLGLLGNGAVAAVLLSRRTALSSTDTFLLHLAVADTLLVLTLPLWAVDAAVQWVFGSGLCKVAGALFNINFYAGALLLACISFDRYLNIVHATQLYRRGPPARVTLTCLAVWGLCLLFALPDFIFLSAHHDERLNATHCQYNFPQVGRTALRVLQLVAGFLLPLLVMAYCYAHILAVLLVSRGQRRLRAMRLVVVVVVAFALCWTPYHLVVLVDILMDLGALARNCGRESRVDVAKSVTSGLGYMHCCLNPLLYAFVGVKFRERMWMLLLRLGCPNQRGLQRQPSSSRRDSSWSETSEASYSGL

[2] = molecular target: T2, C-X-C chemokine receptor type 3 (Rattus norvegicus, UniProt Q9JII9); assay: Antagonist activity at rat CXCR3; type: functional
T2 sequence (Q9JII9 whole entry): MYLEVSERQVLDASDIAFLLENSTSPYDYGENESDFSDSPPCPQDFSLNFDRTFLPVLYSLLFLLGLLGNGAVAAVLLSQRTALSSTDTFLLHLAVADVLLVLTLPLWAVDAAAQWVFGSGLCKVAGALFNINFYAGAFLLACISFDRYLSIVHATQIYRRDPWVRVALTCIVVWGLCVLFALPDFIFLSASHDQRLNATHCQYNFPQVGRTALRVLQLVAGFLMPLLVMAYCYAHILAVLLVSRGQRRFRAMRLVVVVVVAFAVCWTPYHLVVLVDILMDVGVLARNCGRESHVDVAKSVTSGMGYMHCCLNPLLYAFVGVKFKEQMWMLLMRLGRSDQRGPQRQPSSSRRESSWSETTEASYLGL

[3] = molecular target: T3, C-X-C chemokine receptor type 3 (Mus musculus, UniProt O88410); assay: Antagonist activity at mouse CXCR3; type: functional
T3 sequence (O88410 whole entry): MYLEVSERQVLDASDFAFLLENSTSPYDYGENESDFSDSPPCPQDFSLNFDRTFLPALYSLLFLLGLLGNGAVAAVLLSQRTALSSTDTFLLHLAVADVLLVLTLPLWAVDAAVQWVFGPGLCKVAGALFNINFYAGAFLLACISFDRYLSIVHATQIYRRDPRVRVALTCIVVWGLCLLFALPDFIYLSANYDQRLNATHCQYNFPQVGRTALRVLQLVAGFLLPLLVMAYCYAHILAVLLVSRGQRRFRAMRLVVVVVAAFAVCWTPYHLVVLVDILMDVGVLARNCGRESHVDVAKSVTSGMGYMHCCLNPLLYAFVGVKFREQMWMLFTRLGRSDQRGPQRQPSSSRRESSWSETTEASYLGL

[4] = molecular target: Cytochrome P450 3A4 (Homo sapiens, UniProt P08684); assay: Inhibition of CYP3A4; type: ADME
Sequence of Cytochrome P450 3A4 (P08684 whole entry): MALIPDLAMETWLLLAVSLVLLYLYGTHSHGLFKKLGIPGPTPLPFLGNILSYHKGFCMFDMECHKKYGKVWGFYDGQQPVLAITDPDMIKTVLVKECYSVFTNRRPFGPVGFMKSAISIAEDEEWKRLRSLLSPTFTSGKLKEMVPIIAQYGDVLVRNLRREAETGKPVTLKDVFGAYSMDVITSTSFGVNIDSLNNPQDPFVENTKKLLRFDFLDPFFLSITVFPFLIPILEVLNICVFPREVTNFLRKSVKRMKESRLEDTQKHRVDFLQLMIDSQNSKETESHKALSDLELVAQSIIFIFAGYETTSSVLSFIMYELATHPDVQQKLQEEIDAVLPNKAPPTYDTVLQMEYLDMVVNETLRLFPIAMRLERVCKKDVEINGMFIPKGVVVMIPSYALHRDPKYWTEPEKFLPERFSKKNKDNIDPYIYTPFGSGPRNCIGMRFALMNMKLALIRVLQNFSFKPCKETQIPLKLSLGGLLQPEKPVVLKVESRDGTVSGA

[5] = AUC in Sprague-Dawley rat at 10 mg/kg, po after 6 hrs; type: ADME, organism-based; parameters: time < 6 hr, dose 10 mg/kg, route oral; conditions: plasma
[6] = Clearance in Sprague-Dawley rat at 5 mg/kg, po; type: ADME, organism-based; parameters: dose 5 mg/kg, route oral; conditions: in vivo
[7] = AUC in Sprague-Dawley rat at 5 mg/kg, po after 24 hrs; type: ADME, organism-based; parameters: time < 24 hr, dose 5 mg/kg, route oral; conditions: plasma
[8] = system: Rattus norvegicus; assay: Volume of distribution at steady state in Sprague-Dawley rat at 5 mg/kg, po; type: ADME, organism-based; parameters: dose 5 mg/kg, route oral; conditions: in vivo
[9] = Half life in Sprague-Dawley rat at 5 mg/kg, po; type: ADME, organism-based; parameters: dose 5 mg/kg, route oral; conditions: in vivo
[10] = molecular target: Cytochrome P450 2D6 (Homo sapiens, UniProt P10635); assay: Inhibition of CYP2D6; type: ADME
Sequence of Cytochrome P450 2D6 (P10635 whole entry): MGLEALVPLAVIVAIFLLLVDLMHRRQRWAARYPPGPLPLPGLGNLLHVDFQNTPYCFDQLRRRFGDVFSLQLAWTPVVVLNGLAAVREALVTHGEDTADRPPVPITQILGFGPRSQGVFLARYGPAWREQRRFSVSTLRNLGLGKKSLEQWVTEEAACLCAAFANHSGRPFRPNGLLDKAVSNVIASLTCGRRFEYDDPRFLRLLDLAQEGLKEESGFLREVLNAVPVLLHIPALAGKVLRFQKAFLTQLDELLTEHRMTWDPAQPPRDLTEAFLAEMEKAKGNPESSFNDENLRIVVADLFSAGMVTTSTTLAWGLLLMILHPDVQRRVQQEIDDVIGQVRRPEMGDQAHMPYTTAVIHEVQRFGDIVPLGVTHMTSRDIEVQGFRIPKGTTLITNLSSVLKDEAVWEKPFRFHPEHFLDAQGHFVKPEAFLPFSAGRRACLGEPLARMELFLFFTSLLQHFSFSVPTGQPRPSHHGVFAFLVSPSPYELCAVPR

[11] = molecular target: Cytochrome P450 2C19 (Homo sapiens, UniProt P33261); assay: Inhibition of CYP2C19; type: ADME
Sequence of Cytochrome P450 2C19 (P33261 whole entry): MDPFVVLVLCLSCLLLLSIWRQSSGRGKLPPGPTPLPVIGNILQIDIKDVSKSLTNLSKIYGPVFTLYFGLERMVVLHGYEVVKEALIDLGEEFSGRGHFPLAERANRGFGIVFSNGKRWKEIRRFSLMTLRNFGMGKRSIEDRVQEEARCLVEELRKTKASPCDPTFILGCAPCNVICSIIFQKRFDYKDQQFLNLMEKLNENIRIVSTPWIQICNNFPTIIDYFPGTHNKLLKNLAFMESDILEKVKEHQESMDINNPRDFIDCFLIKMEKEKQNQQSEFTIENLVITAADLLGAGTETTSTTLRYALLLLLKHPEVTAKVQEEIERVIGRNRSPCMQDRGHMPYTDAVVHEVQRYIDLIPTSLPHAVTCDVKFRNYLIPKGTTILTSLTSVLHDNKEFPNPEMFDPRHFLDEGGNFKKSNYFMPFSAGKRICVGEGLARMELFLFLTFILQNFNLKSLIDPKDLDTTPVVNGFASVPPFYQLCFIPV

| Compound | IC50 [1] [nM] | other results |
| --- | --- | --- |
| CNC(=O)c1cnc(N2CCN(C3CCN(Cc4ccc(Cl)cc4Cl)CC3)[C@@H](C)C2)c(Cl)c1 | 17 | – |
| CNC(=O)c1cnc(N2CCN(C3CCN(Cc4ccc(C(F)(F)F)cc4)CC3)[C@@H](C)C2)c(Cl)c1 | 63 | – |
| CNC(=O)c1cnc(N2CCN(C3CCN(Cc4ccc(Cl)cc4F)CC3)[C@@H](C)C2)c(Cl)c1 | 18 | – |
| CNC(=O)c1cnc(N2CCN(C3CCN(Cc4ccc(C)cc4)CC3)[C@@H](C)C2)c(Cl)c1 | 87 | – |
| CNC(=O)c1cnc(N2CCN(C3CCN(Cc4ccc(S(C)(=O)=O)cc4)CC3)[C@@H](C)C2)c(Cl)c1 | > 10000 | – |
| CNC(=O)c1cnc(N2CCN(C3CCN(Cc4ccccn4)CC3)[C@@H](C)C2)c(Cl)c1 | 7990 | – |
| CNC(=O)c1cnc(N2CCN(C3CCN(Cc4ccc[nH]4)CC3)[C@@H](C)C2)c(Cl)c1 | 8060 | – |
| CNC(=O)c1cnc(N2CCN(C3CCN(Cc4cccs4)CC3)[C@@H](C)C2)c(Cl)c1 | 1980 | – |
| CNC(=O)c1cnc(N2CCN(C3CCN(Cc4ccc(Cl)cc4)CC3)[C@@H](C)C2)c(Cl)c1 | 32 | – |
| CNC(=O)c1cnc(N2CCN(C3CCN(Cc4ccco4)CC3)[C@@H](C)C2)c(Cl)c1 | 8100 | – |
| CNC(=O)c1cnc(N2CCN(C3CCN(Cc4ccc(F)cc4Cl)CC3)[C@@H](C)C2)c(Cl)c1 | 58 | – |
| CNC(=O)c1cnc(N2CCN(C3CCN(C(=O)c4ccc(Cl)cc4)CC3)[C@@H](C)C2)c(Cl)c1 | 210 | – |
| CNC(=O)c1cnc(N2CCN(C3CCN(CC(=O)c4ccc(F)cc4)CC3)[C@@H](C)C2)c(Cl)c1 | > 10000 | – |
| CNC(=O)c1cnc(N2CCN(C3CCN(C(=O)c4ccnc5cc(Cl)ccc45)CC3)[C@@H](C)C2)c(Cl)c1 | > 10000 | – |
| O=C(NCc1ccc(F)c(F)c1)c1cnc(N2CCN(C3CCN(Cc4ccc(Cl)cc4)CC3)CC2)c(Cl)c1 | – | IC50 [2]: 97 nM; IC50 [3]: 84 nM |
| C[C@H]1CN(c2ncc(C(=O)NCc3ccc(F)c(F)c3)cc2Cl)CCN1C1CCN(Cc2ccc(Cl)cc2)CC1 | 6 | IC50 [4]: > 10000 nM; AUC at 6 h [5]: 0.5 µM·h; IC50 [2]: 9.9 nM; IC50 [3]: 6.7 nM; CL/F [6]: 32.6 mL/min/kg; AUC at 24 h [7]: 1.1 µM·h; Vdss [8]: 17.6 L/kg; half-life [9]: 6.8 h; IC50 [10]: > 10000 nM; IC50 [11]: > 10000 nM |
| C[C@H]1CN(c2ncc(C(=O)NCc3ccc(Cl)c(Cl)c3)cc2Cl)CCN1C1CCN(Cc2ccc(Cl)cc2)CC1 | 16 | – |
| C[C@H]1CN(C2CCN(Cc3ccc(Cl)cc3)CC2)CCN1c1ncc(C(=O)NCc2ccc(Cl)c(Cl)c2)cc1Cl | 39 | – |
| C[C@@H]1CN(C2CCN(Cc3ccc(Cl)cc3)CC2)CCN1c1ncc(C(=O)NCc2ccc(Cl)c(Cl)c2)cc1Cl | 220 | – |
| CC1CN(C2CCN(Cc3ccc(Cl)cc3)CC2)CCN1c1ccc(C(=O)NCc2ccc(F)c(F)c2)cn1 (stereo not given) | 2700 | – |

| Compound | IC50 [1] [nM] | other results |
| --- | --- | --- |
| CNC(=O)c1cnc(N2CCN(C3CCN(Cc4ccc(Cl)cc4)CC3C)CC2)c(Cl)c1 (stereo not given) | 64 | – |
| CNC(=O)c1cnc(N2CCN(C3CCN(Cc4ccc(Cl)cc4)C(C)C3)CC2)c(Cl)c1 (stereo not given) | 31 | – |
| CC1(N2CCN(c3ncc(C(=O)NCc4ccc(Cl)c(Cl)c4)cc3Cl)CC2)CCN(Cc2ccc(Cl)cc2)CC1 | 27 | – |
| O=C(NCc1ccc(F)c(F)c1)c1cnc(N2CCN(C3CCN(Cc4ccc(Cl)cc4)CC3)C(=O)C2)c(Cl)c1 | 1400 | – |
| CNC(=O)c1cnc(N2CCN(C3CCN(Cc4ccc(Cl)cc4)C(=O)C3)[C@@H](C)C2)c(Cl)c1 (stereo not given in full) | 7000 | – |
| CNC(=O)c1cnc(N2CCC(N3CCN(Cc4ccc(Cl)cc4)C[C@@H]3C)CC2)c(Cl)c1 | 12500 | – |
| CNC(=O)c1cnc(N2CCC(N3CCN(Cc4ccc(Cl)cc4)C[C@H]3C)CC2)c(Cl)c1 | 7350 | – |
| CNC(=O)c1cnc(N2CCC(N3CCN(Cc4ccc(Cl)cc4)CC3)C(C)C2)c(Cl)c1 (stereo not given) | 280 | – |
| COC(=O)c1cnc(N2CCN(C3CCN(Cc4ccc(Cl)cc4)CC3)[C@@H](C)C2)c(Cl)c1 | 520 | – |
| C[C@H]1CN(c2ncc(C(=N)N)cc2Cl)CCN1C1CCN(Cc2ccc(Cl)cc2)CC1 | 80 | – |
| CCNC(=N)c1cnc(N2CCN(C3CCN(Cc4ccc(Cl)cc4)CC3)[C@@H](C)C2)c(Cl)c1 | 83 | – |
| CC(=O)Nc1cnc(N2CCN(C3CCN(Cc4ccc(Cl)cc4)CC3)[C@@H](C)C2)c(Cl)c1 | 8 | – |
| C[C@H]1CN(c2ncc(NC(=O)C3CC3)cc2Cl)CCN1C1CCN(Cc2ccc(Cl)cc2)CC1 | 20 | – |
| C[C@H]1CN(c2ncc(C(N)=O)cc2Cl)CCN1C1CCN(Cc2ccc(Cl)cc2)CC1 | 39 | – |
| CCNC(=O)c1cnc(N2CCN(C3CCN(Cc4ccc(Cl)cc4)CC3)[C@@H](C)C2)c(Cl)c1 | 2.3 | – |
| CC(C)NC(=O)c1cnc(N2CCN(C3CCN(Cc4ccc(Cl)cc4)CC3)[C@@H](C)C2)c(Cl)c1 | 5 | – |
| C[C@H]1CN(c2ncc(C(=O)NCC3CCCCC3)cc2Cl)CCN1C1CCN(Cc2ccc(Cl)cc2)CC1 | 2.4 | – |
| C[C@H]1CN(c2ncc(C(=O)Nc3ccc(F)c(F)c3)cc2Cl)CCN1C1CCN(Cc2ccc(Cl)cc2)CC1 | 22 | – |
| C[C@H]1CN(c2ncc(C(=O)N3CCCCC3)cc2Cl)CCN1C1CCN(Cc2ccc(Cl)cc2)CC1 | 900 | – |
| C[C@H]1CN(c2ncc(C(=O)N3CCC3)cc2Cl)CCN1C1CCN(Cc2ccc(Cl)cc2)CC1 | 630 | – |

| Compound | IC50 [1] [nM] | other results |
| --- | --- | --- |
| CC[C@H]1CN(c2ncc(C(=O)NC)cc2Cl)CCN1C1CCN(Cc2ccc(Cl)cc2)CC1 | 3 | – |
| CNC(=O)c1cnc(N2CCN(C3CCN(Cc4ccc(Cl)cc4)CC3)[C@@H](CC(C)C)C2)c(Cl)c1 | 260 | – |
| CNC(=O)c1cnc(N2CCN(C3CCN(Cc4ccc(Cl)cc4)CC3)[C@@H](c3ccccc3)C2)c(Cl)c1 | 830 | – |
| CNC(=O)c1cnc(N2CCN(C3CCN(Cc4ccc(Cl)cc4)CC3)C(C(=O)OC)C2)c(Cl)c1 (stereo not given) | 140 | – |
| CNC(=O)c1cnc(N2CCN(C3CCN(Cc4ccc(Cl)cc4)CC3)C(CO)C2)c(Cl)c1 (stereo not given) | 910 | – |
| CNC(=O)c1cnc(N2CCN(C3CCN(Cc4ccc(Cl)cc4)CC3)C(COC)C2)c(Cl)c1 (stereo not given) | 3100 | – |
| CNC(=O)c1cnc(N2CCN(C3CCN(Cc4ccc(Cl)cc4)CC3)C(C(=O)O)C2)c(Cl)c1 (stereo not given) | > 50000 | – |
| CNC(=O)c1cnc(N2CCN(C3CCN(Cc4ccc(Cl)cc4)CC3)C(C(=O)NC)C2)c(Cl)c1 (stereo not given) | 8900 | – |
| CCNC(=O)c1cnc(N2CCN(C3CCN(Cc4ccc(Cl)cc4F)CC3)[C@@H](CC)C2)c(Cl)c1 | – | AUC at 6 h [5]: 0.95 µM·h; IC50 [2]: 1.6 nM; IC50 [3]: 1.1 nM |
| CCNC(=O)c1cnc(N2CCN(C3CCN(Cc4ccc(Cl)cc4)CC3)[C@@H](C(C)C)C2)c(Cl)c1 | 23 | – |
| CCNC(=O)c1cnc(N2CCN(C3CCN(Cc4ccc(Cl)cc4F)CC3)C(C3CC3)C2)c(Cl)c1 (stereo not given) | 32 | – |
| CCNC(=O)c1cnc(N2CCN(C3CCN(Cc4ccc(Cl)cc4)CC3)[C@@H](CC)C2)c(Cl)c1 | 0.3 | AUC at 6 h [5]: 0.41 µM·h; IC50 [2]: 1.2 nM; IC50 [3]: 0.5 nM |
| CNC(=O)c1cnc(N2CCN(C3CCN(Cc4ccc(Cl)cc4)CC3)CC2)c(Cl)c1 | 560 | – |
| O=C(NCc1ccc(Cl)c(Cl)c1)c1cnc(N2CCC(N3CCN(Cc4ccc(Cl)cc4)CC3)CC2)c(Cl)c1 | 4500 | – |
| O=C(NCc1ccc(Cl)c(Cl)c1)c1cnc(N2CCN(C3CCN(Cc4ccc(Cl)cc4)CC3)CC2)c(Cl)c1 | 35 | – |
| CNC(=O)c1cnc(N2CCN(C3CCN(C(C)c4ccc(Cl)cc4)CC3)[C@@H](C)C2)c(Cl)c1 (single isomer, unassigned; isomer 1) | 5 | – |
| CNC(=O)c1cnc(N2CCN(C3CCN(C4CCc5cc(Cl)ccc54)CC3)[C@@H](C)C2)c(Cl)c1 (single isomer, unassigned; isomer 1) | 29 | – |
| CNC(=O)c1cnc(N2CCN(C3CCN(C4CCc5cc(Cl)ccc54)CC3)[C@@H](C)C2)c(Cl)c1 (single isomer, unassigned; isomer 2) | 35 | – |
| CNC(=O)c1cnc(N2CCN(C3CCN(C(C)c4ccc(Cl)cc4)CC3)[C@@H](C)C2)c(Cl)c1 (stereo in doubt; 6l) | 110 | – |

Source: ChEMBL document CHEMBL1681635, “II. SAR studies of pyridyl-piperazinyl-piperidine derivatives as CXCR3 chemokine antagonists” (Bioorg Med Chem Lett, 2011)
